These results are taken from US8183233B2, “Stable pharmaceutical formulations” (Baxter International Inc., priority 2008, dated 2012).

For data set [1] the following is noted: 10 mL concentrate in 250 mL infusion diluent, cited from earlier work.
Data set [2] in a line: Predicted shelf-life (t90) of meropenem from degradation kinetics. It is filed as physicochemical. Here is the method:
The stability and degradation kinetics of meropenem have been studied. Meropenem is predicted to have a shelf-life (t90) of about 0.5 day at 0° C. Extrapolated to −25° C., the predicted shelf-life is less than one month. Meropenem also polymerizes at higher drug concentration by a second-order mechanism. If one requires a meropenem formulation that is ready-to-use, there is value in being able to stabilize these compounds in frozen aqueous media.

For data set [3] the following is noted: stored at or below −20° C.; cited from earlier work.

Where two headings read alike, the source gives them in different places.

Regarding `CCC(C)CC(C)CCCCCCCCC(=O)N[C@H]1C[C@@H](O)[C@@H](NCCN)NC(=O)[C@@H]2[C@@H](O)CCN2C(=O)[C@H]([C@H](O)CCN)NC(=O)[C@H]([C@H](O)[C@@H](O)c2ccc(O)cc2)NC(=O)[C@@H]2C[C@@H](O)CN2C(=O)[C@H]([C@@H](C)O)NC1=O` (some centres unmarked) [Caspofungin, Caspofungin acetate], the “Time within which the infusion solution must be used” value in data set [1] (stored at ≦25° C.) was ≤ 24 h; in data set [1] (stored refrigerated at 2 to 8° C.), ≤ 48 h.

`C[C@@H](O)[C@H]1C(=O)N2C(C(=O)O)=C(S[C@@H]3CN[C@H](C(=O)N(C)C)C3)[C@H](C)[C@H]12` [Meropenem]: in data set [2] (at 0° C.), the “Predicted shelf-life (t90)” value is listed as “about 0.5 day”. Besides, in data set [2] (extrapolated to −25° C.), the Predicted shelf-life result is listed as “less than one”.

For `CO/N=C(\C(=O)N[C@@H]1C(=O)N2C(C(=O)O)=C(CSc3nc(=O)c(=O)[nH]n3C)CS[C@H]12)c1csc(N)n1` [ceftriaxone sodium], in data set [3], the “Time for which the frozen agent is stable” value is recorded as “at least 18 months”.
